What was measured:
leukemic cells = assay: Direct effect of PTH on leukemic cells in vitro; format: cell-based
[1] = system: HSCs (CD45.2+ cells in bone marrow); assay: Competitive transplantation into secondary recipients; format: in vivo; conditions: donor mice PTH treated four weeks; read 6 weeks after transplant; P<0.05, FIG. 5f
Procedure: (§1) For the competitive transplant studies, 4×10^5 BM MNCs, obtained from CD45.1^+ B6.SJL (Jackson Laboratories, Bar Harbor, Me.) mice were mixed with 2×10^5 cells from mock injected or PTH injected CD45.2^+ C57Bl/6 mice. Recipient B6.SJL mice that had been lethally irradiated 24 hours previously with 10Gy of radiation (^137Cs source) were injected with cells. After 6 weeks, the mice were euthanized with CO2, the BM was removed and flushed with fully supplemented Iscove's Medium. The relative contribution of engraftment from the different cell sources was assessed by flow cytometry utilizing anti-CD45.1 and anti-CD45.2 antibodies (Pharmingen, San Diego, Calif.). To assess the effects of PTH administration post transplantation, recipient C57Bl/6 mice were lethally irradiated and then injected with 2×10^5 BM MNCs from a donor B6.SJL mouse. Twenty-four hours following the injection of the cells, mice were injected with PTH or mock injected as described above for four weeks.
As treatment of stromal cells with PTH led to an increase in the ability of the stromal cell population to support hematopoietic stem cells, it was investigated whether these effects could be recapitulated in vivo. Wild-type C57Bl/6 mice were injected daily with PTH using an intermittent dosing schedule known to increase osteoblasts, and the frequencies of LTC-ICs in the bone marrow were measured. […]

[2] = system: hematopoietic stem cells (LTC-ICs) in the bone marrow; assay: In vivo PTH administration: LTC-IC frequency in bone marrow; parameters: species or system C57Bl/6 mice
Procedure: Murine bone marrow stromal cells from confluent cultures were irradiated (15Gy) and plated at a concentration of 20,000 cells/well in 96-well plates in long-term culture medium. Cells were then seeded into the plates in two-fold serial limiting dilutions and cultured at 33° C./5% CO2 in a humidified atmosphere. Cultures were maintained for 5 weeks, changing half of the medium in the wells weekly. Following this, the medium was replaced with methylcellulose containing medium supplemented with recombinant cytokines as described above, then scored for colony growth ten days following the addition of the medium.
For PTH administration, 6-8 week old wild type C57/B male mice were used. […] Control mice (n=4) were injected with an equivalent volume of vehicle. At the end of the treatment period, ionized serum calcium was measured by the Ciba/Corning 634 Ca^++/pH analyzer, and, after euthanasia, the hind limbs and forelimbs were dissected and utilized for cytologic and histologic analysis.
As treatment of stromal cells with PTH led to an increase in the ability of the stromal cell population to support hematopoietic stem cells, it was investigated whether these effects could be recapitulated in vivo. Wild-type C57Bl/6 mice were injected daily with PTH using an intermittent dosing schedule known to increase osteoblasts, and the frequencies of LTC-ICs in the bone marrow were measured. […] To further define that functional stem cells were increased after PTH treatment, an in vivo assay of competitive transplantation into secondary recipients was used and a >2-fold increase in HSCs was documented (P=<0.05, FIG. 5f). […] Therefore, pharmacological activation of PPR increased stem cell number, but appeared to do so without a broad hematopoietic cell expansion.

peripheral blood cells = assay: Complete blood count during cyclophosphamide chemotherapy cycles; format: in vivo, C57Bl/6 mice
Procedure: (§2) Wild-type C57Bl/6 mice were treated with 5 mg of cyclophosphamide (Day 1). The day following injection of cyclophosphamide, mice received no treatment or were treated for 8 days with G-CSF (5 μg/day), 11 days with PTH (80 μg/kg/day) or a combination of G-CSF plus PTH. Mice that received a combination of both G-CSF and PTH received G-CSF treatment for 8 days and PTH treatment for 11 days. Following this treatment protocol, mice were injected with cyclophosphamide on Day 15 and treated with G-CSF, PTH or G-CSF and PTH as described above. The treatment protocol was then repeated for two subsequent cycles, as outlined in FIG. 7.
During the course of the four treatment cycles, peripheral blood complete blood count (CBC) analysis was performed every 2 to 3 days. This analysis involved the collection of 100 μl of peripheral blood from the tail vein of the mice, which was subsequently analyzed on a HEMAVET 850FS (Drew Scientific). To avoid any deleterious effects from repeated tail bleeds, each individual mouse was only bled once per week.

[3] = parameters: species or system C57Bl/6 mice; conditions: mouse, in vivo
Procedure: For PTH administration, 6-8 week old wild type C57/B male mice were used. Rat PTH (1-34) (80 μg/Kg of body weight) was injected intraperitoneally 5×/week for 4 weeks (n=5). Control mice (n=4) were injected with an equivalent volume of vehicle. At the end of the treatment period, ionized serum calcium was measured by the Ciba/Corning 634 Ca^++/pH analyzer, and, after euthanasia, the hind limbs and forelimbs were dissected and utilized for cytologic and histologic analysis.

[4] = system: HSCs in the peripheral circulation; assay: G-CSF mobilization of HSCs into peripheral circulation after chemotherapy; format: in vivo, C57Bl/6 mice
Procedure: as §2
At the end of the four-cycle treatment with cyclophosphamide and G-CSF/PTH, the bone marrow was removed from the treated mice and competitive transplants into B6.SJL mice were performed to measure the maintenance of the HSC pool in the bone marrow. This involved mixing 5×10^5 BM cells from the treated C57Bl/6 mice (CD45.2) with 2.5×10^5 BM cells from the B6.SJL mice (CD45.1). These cells were then injected into lethally irradiated B6.SJL mice. Eighteen weeks following injection of the cells, peripheral blood was collected from the mice and the relative contribution of the HSCs from the treated animals was measured by flow cytometry for the CD45.2^+ cells. To assess the ability of the HSCs to be mobilized into the peripheral circulation, one week following treatment mice were mobilized with G-CSF (5 μg/day) for 5 days. Peripheral blood (300 μl) was collected from these mice and mixed with 2.5×10^5 BM cells from a B6.SJL mouse. These cells were injected into a lethally irradiated B6.SJL host. Eighteen weeks following injection of the cells, peripheral blood was collected from the mice and the relative contribution of the HSCs from the treated animals was measured by flow cytometry for the CD45.2^+ cells.

[5] = PTH administration following myeloablation and bone marrow transplantation: survival; format: in vivo, C57Bl/6 mice; conditions: at 30 days; lethal irradiation, limiting numbers of donor bone marrow cells, pulse dosing of PTH after transplant; FIG. 6
Procedure: as §1
Assessing whether PPR stimulation could affect models relevant to the clinical use of stem cells in humans, the impact of PTH administration on animals undergoing myeloablation and bone marrow transplantation was assessed. Limiting numbers of bone marrow derived donor cells were used to mimic a setting of therapeutic need. […]

Q: With Rat PTH (1-34) as the substance, how does the “direct effect on leukemic cells” value (leukemic cells) read?
A: did not directly affect

Q: What about the “increase in HSCs, competitive transplantation” value [1] of the same substance?
A: > 2 fold

Q: What about the “hematopoietic stem cells over mock injected mice” value ([2]; four weeks PTH treatment, 80 μg/Kg i.p. 5x/week) of the same substance?
A: significant increase in the hematopoietic stem cells

Q: And the “limit dilution LTC-IC assay, stem-like cells” value ([2]; four weeks PTH, P<0.005, FIG. 5e)?
A: an increase in stem-like cells

Q: And the “hematopoietic stem cell population (frequencies of LTC-ICs in the bone marrow)” value ([2]; two week PTH treatment, 80 μg/Kg i.p.)?
A: did not result in any significant increase

Q: And the “WBC and NE counts following chemotherapy, effect of adding PTH” value (peripheral blood cells; PTH 80 μg/kg/day 11 days added to G-CSF)?
A: not altered

Q: What about the “hematological response to chemotherapy” value (peripheral blood cells; mice that did not receive G-CSF, PTH or not) of the same substance?
A: no differences

Q: What about the “hypercalcemia by serum calcium measurements” value [3] of the same substance?
A: no evidence of hypercalcemia

Q: And the “mobilization of HSCs into the circulation with G-CSF” value ([4]; no supportive G-CSF during chemotherapy, prior PTH treatment)?
A: increased with prior PTH treatment

Q: What about the “mobilization of HSCs into the peripheral circulation” value ([4]; supportive G-CSF with concurrent PTH) of the same substance?
A: partially reversed

Q: And the survival [5]?
A: 100%
